According to patent publication US11098077B2, “Locked nucleic acid cyclic dinucleotide compounds and uses thereof” (CHINOOK THERAPEUTICS, INC., priority 2016, dated 2021):

Experiments:
hSTING WT = target: T1, hSTING WT (Homo sapiens, UniProt Q86WV6, H232R); assay: Differential scanning fluorometry (DSF) binding to purified STING AA140-379, wild type; conditions: for hSTING Tm Shift WT: DSF, ligand 1 mM, 1 mg/ml STING AA140-379
T1 construct: DNA encoding amino acids 140-379 (amino acid numbering corresponding to Swiss Prot Q86WV6); 6xHIS (N, cleaved yes); SUMO (N, cleaved yes); made in house; host or cells: Rosetta2 (DE3) E. coli
T1 sequence (Q86WV6 140-379 H232R limits assumed): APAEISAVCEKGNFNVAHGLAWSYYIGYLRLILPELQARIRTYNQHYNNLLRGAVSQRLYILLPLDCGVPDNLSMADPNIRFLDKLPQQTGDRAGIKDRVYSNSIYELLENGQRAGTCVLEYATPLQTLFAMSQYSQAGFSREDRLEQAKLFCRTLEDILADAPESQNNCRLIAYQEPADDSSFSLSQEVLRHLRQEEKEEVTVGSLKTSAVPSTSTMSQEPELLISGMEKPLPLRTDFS
Procedure: (§1) Cells were grown in lysogeny broth at 37° C. until a […] absorbance of 0.6 was reached. […] Cell pellets were re-suspended on ice in a buffer containing 50 mM Tris hydrochloride (Tris-HCl) pH 7.5, 500 mM sodium chloride (NaCl), 20 mM imidazole, 10% glycerol, 1 mM tris(2-carboxyethyl)phosphine hydrochloride (TCEP) and protease inhibitor tablet (Pierce) (Buffer A). Cells were lysed using an S-450D sonifier (Emmerson industrial) on ice. […] Protein was aliquoted, flash frozen in liquid nitrogen and stored at −80° C. until use.
(§2) The protein is heated in the presence of a dye that binds to and fluoresces in hydrophobic environments. The protein is thermally denatured by heating resulting in increased dye binding to the unfolded protein and fluorescence. The temperature midpoint (Tm) of a proteins denaturation is established by calculating the half maximal value of the denaturation curve. The temperature midpoint of the protein in the presence of a ligand is directly related to the affinity of the ligand for the protein and therefore its ability to stabilize the protein at higher temperatures.
(§3) Each of wild type hSTING, HAQ allele hSTING and REF allele hSTING were used with each of the reference compounds and compounds of the invention as listed in Table 4. Samples were placed in hard shell PCR plate (Bio-Rad). The fluorescence as a function of temperature was recorded in a CFX 96 real time PCR machine (Bio-Rad) reading on the HEX channel, excitation 450-490, emission 560-580 nm. The temperature gradient was from 15-80° C. ramping 0.5° C. per 15 seconds and recording every 0.5° C. After subtraction of the background signal from a sample lacking protein and ligand. The midpoint temperature (Tm) was calculated by fitting the curves of the fluorescence as a function of temperature to a Boltzmann sigmoidal function (Graph Pad Prism).

hSTING HAQ allele = target: T2, hSTING HAQ allele (Homo sapiens, UniProt Q86WV6, G230A/H232R/R293Q); assay: Differential scanning fluorometry (DSF) binding to purified STING AA140-379, HAQ allele; conditions: ligand 1 mM, 1 mg/ml STING AA140-379
T2 construct: DNA encoding amino acids 140-379 (amino acid numbering corresponding to Swiss Prot Q86WV6); 6xHIS (N, cleaved yes); SUMO (N, cleaved yes); made in house; host or cells: Rosetta2 (DE3) E. coli
T2 sequence (Q86WV6 140-379 G230A/H232R/R293Q limits assumed): as the sequence (Q86WV6 140-379 H232R limits assumed) above, with G91A, R154Q counted along it
Procedure: as §1, §2, §3

hSTING REF allele = target: T3, hSTING REF allele (Homo sapiens, UniProt Q86WV6); assay: Differential scanning fluorometry (DSF) binding to purified STING AA140-379, REF allele; conditions: for hSTING Tm Shift REF: DSF, ligand 1 mM, 1 mg/ml STING AA140-379; for Tm shift compared with 2′3′-RR-(A)(A) and 2′3′-(G)(A): for the REF allele
T3 construct: DNA encoding amino acids 140-379 (amino acid numbering corresponding to Swiss Prot Q86WV6); 6xHIS (N, cleaved yes); SUMO (N, cleaved yes); made in house; host or cells: Rosetta2 (DE3) E. coli
T3 sequence (Q86WV6 140-379): as the sequence (Q86WV6 140-379 H232R limits assumed) above, with R93H counted along it
Procedure: as §1, §2, §3

[1] = target: T4, hSTING HAQ allele in THP1-Dual cells (Homo sapiens, UniProt Q86WV6, G230A/H232R/R293Q/R71H); assay: THP1-Dual IRF-3 inducible secreted luciferase reporter assay (type I interferon activation), without digitonin; format: cell-based
T4 construct: a human monocyte cell line containing the hSTING HAQ allele; host or cells: THP1-Dual cells
T4 sequence (Q86WV6 whole entry R71H/G230A/H232R/R293Q): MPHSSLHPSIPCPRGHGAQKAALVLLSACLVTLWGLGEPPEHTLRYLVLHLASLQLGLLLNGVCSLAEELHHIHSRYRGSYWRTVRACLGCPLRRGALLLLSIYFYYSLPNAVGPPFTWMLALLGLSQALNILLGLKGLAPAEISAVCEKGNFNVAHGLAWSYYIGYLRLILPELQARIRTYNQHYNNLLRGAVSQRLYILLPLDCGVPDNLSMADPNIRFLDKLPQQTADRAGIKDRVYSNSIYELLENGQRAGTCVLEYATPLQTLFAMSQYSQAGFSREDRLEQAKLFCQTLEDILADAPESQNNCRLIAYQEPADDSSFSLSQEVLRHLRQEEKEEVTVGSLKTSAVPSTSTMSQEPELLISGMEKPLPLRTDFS
Procedure: After 30 minutes, cells were washed and fresh RPMI media containing 10% FBS was added, and cells were incubated at 37° C. with 5% CO2 Cell culture supernatants from each sample were collected after overnight incubation, and 10 μL of the cell culture supernatants was added to 50 μL QUANTI-Luc reagent (Invivogen). Type I interferon activation was determined by measuring secreted luciferase levels on a SpectraMax M3 spectrophotometer (Molecular Devices).

[2] = for all three alleles (WT, HAQ, REF)

Structure (SMILES) | hSTING Tm Shift WT (hSTING WT) [°C] | hSTING Tm Shift HAQ (hSTING HAQ allele) [°C] | hSTING Tm Shift REF (hSTING REF allele) [°C] | EC50 [1] [µM] | Tm shift compared with reference compound 2′3′-RR-(A)(A) (hSTING WT; [2]) | Tm shift compared with 2′3′-RR-(A)(A) and 2′3′-(G)(A) (hSTING REF allele) | Tm shift compared with natural ligand 2′3′-(G)(A) (hSTING WT; [2])
O=C(Nc1ncnc2c1ncn2[C@@H]1O[C@@H]2CO[P@@](=O)(S)O[C@H]3[C@H]4OC[C@]3(CO[P@](=O)(S)O[C@@H]1[C@@H]2O)O[C@H]4n1cnc2c(NC(=O)c3ccccc3)ncnc21)c1ccccc1 [Compound 11f, dithio-(Sp,Rp)-cyclic-[3′-BzA(2′,5′)p-2′O,4′C-LNA-BzA(3′,5′)p]] | 6.6 | 7.5 | 6.5 |  |  |  | 
CC(C)(C)[Si](C)(C)O[C@H]1[C@H]2O[P@](=O)(S)OC[C@@]34CO[C@@H]([C@H](n5cnc6c(N)ncnc65)O3)[C@@H]4O[P@](=O)(S)OC[C@H]1O[C@H]2n1cnc2c(N)ncnc21 [Compound 11a, dithio-(Rp,Rp)-cyclic-[3′-OTBS-A(2′,5′)p-2′O,4′C-LNA-A(3′,5′)p]] | 7.0 | 11.6 | 5.4 |  |  |  | 
O=C(Nc1ncnc2c1ncn2[C@@H]1O[C@@H]2CO[P@@](=O)(S)O[C@H]3[C@H]4OC[C@]3(CO[P@@](=O)(S)O[C@@H]1[C@@H]2O)O[C@H]4n1cnc2c(NC(=O)c3ccccc3)ncnc21)c1ccccc1 [Compound 11d, dithio-(Rp,Rp)-cyclic-[3′-BzA(2′,5′)p-2′O,4′C-LNA-BzA(3′,5′)p]] | 2.5 | 3.7 | 2.4 |  |  |  | 
O=C(Nc1ncnc2c1ncn2[C@@H]1O[C@@H]2CO[P@](=O)(S)O[C@H]3[C@H]4OC[C@]3(CO[P@@](=O)(S)O[C@@H]1[C@@H]2O)O[C@H]4n1cnc2c(NC(=O)c3ccccc3)ncnc21)c1ccccc1 [Compound 11e, dithio-(Rp,Sp)-cyclic-[3′-BzA(2′,5′)p-2′O,4′C-LNA-BzA(3′,5′)p]] | 1.1 | 1.5 | 1.2 |  |  |  | 
Nc1ncnc2c1ncn2[C@@H]1O[C@@]23CO[C@@H]1[C@@H]2O[P@@](=O)(S)OC[C@@H]1C[C@@H](O[P@](=O)(S)OC3)[C@H](n2cnc3c(N)ncnc32)O1 [Compound 21b, dithio-(Rp,Sp)-cyclic-[3′H-A(2′,5′)p-2′O,4′C-LNA-A(3′,5′)p]] | 5.0 | 10.0 | 4.2 | 77.3 |  |  | 
O=C(Nc1ncnc2c1ncn2[C@@H]1O[C@@]23CO[C@@H]1[C@@H]2O[P@](=O)(S)OC[C@@H]1C[C@@H](O[P@](=O)(S)OC3)[C@H](n2cnc3c(NC(=O)c4ccccc4)ncnc32)O1)c1ccccc1 [Compound 22a, dithio-(Rp,Rp)-cyclic-[3′H-BzA(2′,5′)p-2′O,4′C-LNA-BzA(3′,5′)p]] | 0.6 | 2.2 | 0.6 |  |  |  | 
O=C(Nc1ncnc2c1ncn2[C@@H]1O[C@@]23CO[C@@H]1[C@@H]2O[P@@](=O)(S)OC[C@@H]1C[C@@H](O[P@](=O)(S)OC3)[C@H](n2cnc3c(NC(=O)c4ccccc4)ncnc32)O1)c1ccccc1 [Compound 22b, dithio-(Rp,Sp)-cyclic-[3′H-BzA(2′,5′)p-2′O,4′C-LNA-BzA(3′,5′)p]] | 4.6 | 5.9 | 4.6 |  |  |  | 
CC(C)(C)[Si](C)(C)O[C@H]1[C@H]2O[P@](=O)(S)OC[C@@]34CO[C@@H]([C@H](n5cnc6c(N)ncnc65)O3)[C@@H]4O[P@@](=O)(S)OC[C@H]1O[C@H]2n1cnc2c(N)ncnc21 [Compound 11b, dithio-(Rp,Sp)-cyclic-[3′-OTBS-A(2′,5′)p-2′O,4′C-LNA-A(3′,5′)p]] | −1.8 | 3.3 | −1.5 |  |  |  | 

Now from value to compound, other results behind:

hSTING Tm Shift WT (hSTING WT) [°C] | hSTING Tm Shift HAQ (hSTING HAQ allele) [°C] | hSTING Tm Shift REF (hSTING REF allele) [°C] | EC50 [1] [µM] | Structure (SMILES) | Tm shift compared with reference compound 2′3′-RR-(A)(A) (hSTING WT; [2]) | Tm shift compared with 2′3′-RR-(A)(A) and 2′3′-(G)(A) (hSTING REF allele) | Tm shift compared with natural ligand 2′3′-(G)(A) (hSTING WT; [2])
8.2 | 13.2 | 7.1 | 81 | Nc1ncnc2c1ncn2[C@@H]1O[C@@H]2CO[P@](=O)(S)O[C@H]3[C@H]4OC[C@]3(CO[P@@](=O)(S)O[C@@H]1[C@@H]2F)O[C@H]4n1cnc2c(N)ncnc21 [Compound 27b, dithio-(Rp,Sp)-cyclic-[3′F-A(2′,5′)p-2′O,4′C-LNA-A(3′,5′)p]] |  |  | 
13.2 | 19.3 | 9.3 | 38 | Nc1nc2c(ncn2[C@@H]2O[C@@]34CO[C@@H]2[C@@H]3O[P@@](=O)(S)OC[C@H]2O[C@@H](n3cnc5c(N)ncnc53)[C@H](O)[C@@H]2O[P@](=O)(S)OC4)c(=O)[nH]1 [Compound 33b, 2-amino-9-((2R,3R,3 aS,5S,7aR,9R,10R,10aS,12R,14aR)-9-(6-amino-9H-purin-9-yl)-10-hydroxy-5,12-dimercapto-5,12-dioxidohexahydro-2H,7H,14H-3,14a-(epoxymethano)difuro[3,2-d:3′,2′-j][1,3,7,9]tetraoxa[2,8]diphosphacyclododecin-2-yl)-1,9-dihydro-6H-purin-6-one] | comparable to or greater than that of the reference compound 2′3′-RR-(A)(A) | greater Tm shift than both 2′3′-RR-(A)(A) and 2′3′-(G)(A) | 
18.36 | 29.6 | 11.9 | 30.2 | Nc1nc2c(ncn2[C@@H]2O[C@@]34CO[C@@H]2[C@@H]3O[P@](=O)(S)OC[C@H]2O[C@@H](n3cnc5c(N)ncnc53)[C@H](O)[C@@H]2O[P@](=O)(S)OC4)c(=O)[nH]1 [Compound 33a, 3′3′-RR-(A)(2′O,4′C-LNA-G)] | comparable to or greater than that of the reference compound 2′3′-RR-(A)(A) | greater Tm shift than both 2′3′-RR-(A)(A) and 2′3′-(G)(A) | greater Tm shift than the natural ligand 2′3′-(G)(A)
1.8 | 6.8 | 0.5 | > 150 | Nc1ncnc2c1ncn2[C@@H]1O[C@@H]2CO[P@](=O)(S)O[C@H]3[C@H]4OC[C@]3(CO[P@@](=O)(S)O[C@@H]1[C@H]2F)O[C@H]4n1cnc2c(N)ncnc21 [Compound 37b, dithio-(RP,SP)-cyclic-[3′βF-A(2′,5′)p-2′O,4′C-LNA-A(3′,5′)p]] |  |  | 
11.8 | 18.2 | 10.2 | 10 | Nc1ncnc2c1ncn2[C@@H]1O[C@@H]2CO[P@@](=O)(S)O[C@H]3[C@H]4OC[C@]3(CO[P@@](=O)(S)O[C@@H]1[C@@H]2F)O[C@H]4n1cnc2c(N)ncnc21 [Compound 27a, dithio-(Rp,Rp)-cyclic-[3′F-A(2′,5′)p-2′O,4′C-LNA-A(3′,5′)p]] | comparable to or greater than that of the reference compound 2′3′-RR-(A)(A) | greater Tm shift than both 2′3′-RR-(A)(A) and 2′3′-(G)(A) | 
4.7 | 11.2 | 2.1 | 61.2 | Nc1ncnc2c1ncn2[C@@H]1O[C@@H]2CO[P@@](=O)(S)O[C@H]3[C@H]4OC[C@]3(CO[P@@](=O)(S)O[C@@H]1[C@H]2F)O[C@H]4n1cnc2c(N)ncnc21 [Compound 37a, dithio-(RP,RP)-cyclic-[3′βF-A(2′,5′)p-2′O,4′C-LNA-A(3′,5′)p]] |  |  | 
9.4 | 14.7 | 7.4 | 60 | Nc1nc2c(ncn2[C@@H]2O[C@@H]3CO[P@](=O)(S)O[C@H]4[C@H]5OC[C@]4(CO[P@@](=O)(S)O[C@H]3[C@H]2O)O[C@H]5n2cnc3c(N)ncnc32)c(=O)[nH]1 [Compound 45b, 2-amino-9-((2R,3R,3aS,5S,7aR,9R,10R,10aS,12R,14aR)-2-(6-amino-9H-purin-9-yl)-10-hydroxy-5,12-dimercapto-5,12-dioxidohexahydro-2H,7H,14H-3,14a-(epoxymethano)difuro[3,2-d:3′,2′-j][1,3,7,9]tetraoxa[2,8]diphosphacyclododecin-9-yl)-1,9-dihydro-6H-purin-6-one] |  |  | 
